Experimental data from patent publication US20230094076A1, “COMBINATION THERAPY” (GlaxoSmithKline Intellectual Property Development Limited, priority 2016, published 2023).
Read-outs that look alike come from different tables or passages of the source.

Legend:
[1] = biological target: PRMT8 (Homo sapiens, UniProt Q9NR22); test: PRMT family radioactive assay; assay type: biochemical
[2] = biological target: PRMT5/MEP50 (Homo sapiens, UniProt O14744); test: PRMT family radioactive assay; assay type: biochemical; details: 60 minute SAM:Enzyme:Compound A preincubation
PRMT5/MEP50, sequence (O14744 whole entry): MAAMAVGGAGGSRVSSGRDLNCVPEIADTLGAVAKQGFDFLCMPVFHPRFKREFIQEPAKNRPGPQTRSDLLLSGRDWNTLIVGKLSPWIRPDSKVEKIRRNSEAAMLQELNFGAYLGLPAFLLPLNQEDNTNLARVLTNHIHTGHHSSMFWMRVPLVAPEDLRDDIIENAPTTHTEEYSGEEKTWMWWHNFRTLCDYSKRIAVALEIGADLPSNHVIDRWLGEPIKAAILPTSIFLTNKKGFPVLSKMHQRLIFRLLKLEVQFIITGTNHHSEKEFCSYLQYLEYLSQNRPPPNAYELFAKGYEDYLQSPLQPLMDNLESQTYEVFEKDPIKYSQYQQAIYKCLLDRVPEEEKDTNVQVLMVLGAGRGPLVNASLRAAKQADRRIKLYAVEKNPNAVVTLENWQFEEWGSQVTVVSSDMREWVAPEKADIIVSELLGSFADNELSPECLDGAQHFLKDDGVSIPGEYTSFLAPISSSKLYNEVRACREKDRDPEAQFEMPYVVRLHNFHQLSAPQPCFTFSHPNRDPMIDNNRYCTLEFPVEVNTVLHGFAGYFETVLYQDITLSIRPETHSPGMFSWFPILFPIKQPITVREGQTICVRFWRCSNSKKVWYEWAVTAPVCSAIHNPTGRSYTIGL
PRMT5/MEP50, sequence (Q9BQA1 whole entry partner): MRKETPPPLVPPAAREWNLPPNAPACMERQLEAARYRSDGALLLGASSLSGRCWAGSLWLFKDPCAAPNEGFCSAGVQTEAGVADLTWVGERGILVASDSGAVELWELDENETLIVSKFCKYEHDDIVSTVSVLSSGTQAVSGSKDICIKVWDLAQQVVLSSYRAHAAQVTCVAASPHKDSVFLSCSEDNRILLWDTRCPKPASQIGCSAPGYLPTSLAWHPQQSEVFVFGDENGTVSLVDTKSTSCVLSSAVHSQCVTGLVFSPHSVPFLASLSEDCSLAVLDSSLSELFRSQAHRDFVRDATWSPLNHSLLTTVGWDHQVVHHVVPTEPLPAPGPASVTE

[3] = biological target: PRMT9 (Homo sapiens, UniProt Q6P2P2); test: PRMT family radioactive assay; assay type: biochemical; details: 60 minute SAM:Enzyme:Compound A preincubation
PRMT9, sequence (Q6P2P2 whole entry): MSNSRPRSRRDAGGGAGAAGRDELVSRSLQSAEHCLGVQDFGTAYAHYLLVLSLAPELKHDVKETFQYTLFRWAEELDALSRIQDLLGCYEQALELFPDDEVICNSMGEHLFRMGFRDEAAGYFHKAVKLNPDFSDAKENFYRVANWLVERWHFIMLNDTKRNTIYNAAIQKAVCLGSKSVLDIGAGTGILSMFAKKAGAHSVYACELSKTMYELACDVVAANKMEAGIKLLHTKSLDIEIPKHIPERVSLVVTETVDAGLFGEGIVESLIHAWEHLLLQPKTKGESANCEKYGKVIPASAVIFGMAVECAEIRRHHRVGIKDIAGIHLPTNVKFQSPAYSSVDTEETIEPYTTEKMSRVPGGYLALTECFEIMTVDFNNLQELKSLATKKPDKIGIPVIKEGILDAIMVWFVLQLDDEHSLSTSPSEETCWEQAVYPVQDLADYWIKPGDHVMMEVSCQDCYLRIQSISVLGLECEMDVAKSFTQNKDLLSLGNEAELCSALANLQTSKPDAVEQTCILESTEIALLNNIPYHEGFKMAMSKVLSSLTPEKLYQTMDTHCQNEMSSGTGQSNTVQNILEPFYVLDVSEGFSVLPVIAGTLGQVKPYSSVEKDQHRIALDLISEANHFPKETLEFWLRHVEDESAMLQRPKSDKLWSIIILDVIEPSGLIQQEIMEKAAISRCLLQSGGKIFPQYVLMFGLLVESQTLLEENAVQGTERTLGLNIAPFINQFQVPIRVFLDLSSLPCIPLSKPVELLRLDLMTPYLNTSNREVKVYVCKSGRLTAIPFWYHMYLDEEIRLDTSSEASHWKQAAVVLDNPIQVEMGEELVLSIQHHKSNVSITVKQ

[4] = tested on: 196 human cancer cell lines (Total); details: percent of cell lines, 196 cell lines
Experimental: (§1) The growth of all cell lines was evaluated over time across a wide range of seeding densities to identify conditions that permitted proliferation throughout the entire 6-day assay. Cells were plated at the optimal seeding density and after overnight incubation, a 20-point 2-fold titration of compound was added and plates were incubated for 6 days. A replicate plate of cells was harvested at the time of compound addition to quantify the starting number of cells (T0). Values obtained after the 6 day treatment were expressed as a function of the T0 value and plotted against compound concentration. The T0 value was normalized to 100% and represents the number of cells at the time of compound addition. The data were fit with a 4 parameter equation to generate a concentration response curve and the growth IC50 (gIC50) was determined. The gIC50 is the midpoint of the ‘growth window’, the difference between the number of cells at the time of compound addition (To) and the number of cells after 6 days (DMSO control). The growth-death assay can be used to quantify the net population change, clearly defining cell death (cytotoxicity) as fewer cells compared to the number at the time of compound addition (T0).

[5] = tested on: 769-P; details: ccRCC, 6-day
Experimental: as §1

[6] = tested on: A498; details: A498, ccRCC, 6-day
Experimental: as §1

[7] = tested on: ACHN; details: ccRCC, 6-day
Experimental: as §1

[8] = tested on: Breast cancer cell lines; details: percent of cell lines, 29 cell lines
Experimental: as §1

[9] = tested on: CAKI-1; details: CAKI-1, ccRCC, 6-day
Experimental: as §1

[10] = tested on: CAKI-2; details: CAKI-2, ccRCC, 6-day
Experimental: as §1

[11] = tested on: G-401; details: G-401, Wilm's, 6-day
Experimental: as §1

[12] = tested on: G-402; details: G-402, Leiomyoblastoma, 6-day
Experimental: as §1

[13] = tested on: Kidney cancer cell lines; details: percent of cell lines, 10 cell lines
Experimental: as §1

[14] = tested on: MDA-MB-; details: melanoma, 6-day
Experimental: as §1

[15] = tested on: MOLM-13; details: MOLM-13, AML subtype M5, 6-day
Experimental: as §1

[16] = tested on: MV-4-11; details: MV-4-11, AML subtype M5, 6-day
Experimental: as §1

[17] = tested on: NOMO-1; details: NOMO-1, AML subtype M5, 6-day
Experimental: as §1

[18] = tested on: NSCLC cell lines; details: percent of cell lines, 25 cell lines
Experimental: as §1

[19] = tested on: OCI-; details: AML subtype M4, 6-day
Experimental: as §1

[20] = tested on: Prostate cancer cell lines; details: 4 cell lines
Experimental: as §1

[21] = tested on: SK-NEP-1; details: SK-NEP-1, Wilm's, 6-day
Experimental: as §1

[22] = tested on: SKM-1; details: SKM-1, AML subtype M5, 6-day
Experimental: as §1

[23] = tested on: TF-1; details: TF-1, AML subtype M6, 6-day
Experimental: as §1

[24] = tested on: arginine methylation (ADMA, MMA, SDMA) in Toledo cells; test: Durability of arginine methylation changes after compound washout (western); assay type: cell-based, human; details: 0.4 μM for 72 hours, then washout
Experimental: (A) Stability of changes to ADMA. […] (B) Representative western blots of arginine methylation marks. Regions quantified for (A) are denoted by black bars on the side of the gel.
Cells were then washed, cultured in Compound A-free media, samples were collected daily through 120 hours, and arginine methylation levels were examined by western analysis. […] SDMA appeared to continue to increase even after 6 hours of washout. This is consistent with the continued increase observed through 120 hours without any obvious plateau (FIG. 12) coupled with the durable increase in MMA that has not yet returned to baseline after washout. Durability of each modification generally reflected the kinetics of arginine methylation changes brought about by Compound A, with MMA being the most rapid.

[25] = tested on: OCI-Ly1
Excerpt: (§2) FIG. 18: Propidium iodide FACS analysis of cell cycle in human lymphoma cell lines. […] Data represents the average±SEM of biological replicates, n=2.

[26] = tested on: Toledo
Excerpt: as §2

[27] = tested on: U2932
Excerpt: as §2

[28] = tested on: Toledo (human DLBCL) xenograft; details: for Body weight Difference (vs. vehicle): Toledo (DLBCL), Day 25
[29] = tested on: ccRCC cell lines; details: only at highest concentration

PRMT8, sequence (Q9NR22 whole entry): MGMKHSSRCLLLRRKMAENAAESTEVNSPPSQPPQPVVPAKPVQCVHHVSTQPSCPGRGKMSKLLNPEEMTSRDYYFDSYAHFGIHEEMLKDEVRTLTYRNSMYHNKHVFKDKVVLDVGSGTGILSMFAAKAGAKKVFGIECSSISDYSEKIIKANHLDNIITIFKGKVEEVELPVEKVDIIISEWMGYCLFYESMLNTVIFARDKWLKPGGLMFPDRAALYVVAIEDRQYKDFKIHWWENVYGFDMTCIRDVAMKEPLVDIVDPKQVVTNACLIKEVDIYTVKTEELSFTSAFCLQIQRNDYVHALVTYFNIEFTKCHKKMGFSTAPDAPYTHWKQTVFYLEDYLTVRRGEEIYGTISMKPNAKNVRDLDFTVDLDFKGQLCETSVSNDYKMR

`CCOCC1(COCC)CCC(c2n[nH]cc2CN(C)CCNC)CC1` [Compound A] was tested, and the inhibition of activity ([1]; 60 minute SAM:Enzyme:Compound A preincubation) was “inhibited the activity”, the “time dependence of inhibition” value ([1]; increasing preincubation times) was “time dependent inhibitor” and the inhibition of activity [2] was “failed to inhibit”. For the same compound, the inhibition of activity [3] was “failed to inhibit”, the “% gIC100 < 2” value [4] was 4% and the “Ymin − T0” value [5] was 119.0. The “Ymin − T0” value [6] was 313.4, the “Ymin − T0” value [7] was 96.5 and the “% Cytotoxic” value [8] was 10%. The “% gIC100 < 2” value [8] was 0%, the “Ymin − T0” value [9] was 178.7 and the “Ymin − T0” value [10] was 169.6. For the same compound, the “Ymin − T0” value [11] was 353.7, the “Ymin − T0” value [12] was 92.6 and the “% Cytotoxic” value [13] was 0%. The “% gIC100 < 2” value [13] was 0%, the “Ymin − T0” value [14] was 19.1 and the gIC100 [14] was 29.33 ± 0.00 µM. For the same compound, the gIC100 [15] was 8.64 ± 0.39 µM, the “Ymin − T0” value ([15]; negative = cell death) was −100.0 and the gIC100 [16] was 14.55 ± 4.27 µM. For the same compound, the “Ymin − T0” value ([16]; negative = cell death) was 565.6, the gIC100 [17] was 29.33 ± 0.00 µM and the “Ymin − T0” value ([17]; negative = cell death) was 259.1. The “% Cytotoxic” value [18] was 16%, the “% gIC100 < 2” value [18] was 0% and the gIC100 [19] was 29.33 ± 0.00 µM. For the same compound, the “Ymin − T0” value ([19]; negative = cell death) was 523.2, the “Median gIC100” value ([20]; 6-day proliferation) was 29.34 µM and the “% Cytotoxic” value ([20]; percent of cell lines) was 0%. For the same compound, the “% gIC100 < 2” value ([20]; percent of cell lines) was 0%, the “Ymin − T0” value [21] was 25.3 and the gIC100 [22] was 11.61 ± 5.52 µM. For the same compound, the “Ymin − T0” value ([22]; negative = cell death) was −19.1, the gIC100 [23] was 29.33 ± 0.00 µM and the “Ymin − T0” value ([23]; negative = cell death) was 788.1. The “time for ADMA to return to baseline after washout” value [24] was no more than 24 h, the “time for MMA to return to baseline after washout” value [24] was no more than 24 h and the “time for SDMA to return to baseline after washout” value [24] was no more than 96 h. For the same compound, the “concentration giving accumulation of cells in sub-G1” value (shortened to “concentration giving accumulation”) [25] was 10 µM, the “concentration giving accumulation” value ([26]; after 3 days) was no less than 1000 nM and the “concentration giving increase in sub-G1 population” value ([26]; by day 7) was no less than 100 nM. For the same compound, the “concentration giving accumulation” value [27] was 10 µM, the “Body weight Difference (vs. vehicle)” value ([28]; 37.5 QD mg/kg oral) was −5% and the “Body weight Difference (vs. vehicle)” value ([28]; 75 BID mg/kg oral) was −4%. The “Body weight Difference (vs. vehicle)” value ([28]; 75 QD mg/kg oral) was −5%, the “Body weight Difference (vs. vehicle)” value ([28]; 150 QD mg/kg oral) was −7% and the body weight loss ([28]; any dose group, 37.5-150 mg/kg QD or 75 mg/kg BID) was “No significant body weight loss”. For the same compound, the “concentration at which caspase cleavage occurred” value [29] was 30 µM.
